How the values were obtained:
C57BL/6 male mice [1] = assay: Body weight, spleen and thymus indexes and HE staining after total body irradiation (Example 3); format: in vivo
Method: C57BL/6 male mice (24.8±1,6 g in body weight) aged 10 weeks were divided into 4 groups of 8 mice each. After acclimating to the environment, JAC4 (100 mg/kg) or an equal volume of vehicle (polyethylene glycol:ethanol:physiological saline=47.5:7.5:50, v/v/v) was orally administered to the mice once daily for 7 consecutive days. After that, the mice in one JAC4 treatment group and one vehicle group were subjected to total body X-ray irradiation (6 Gy) and JAC4 or vehicle treatment was continued. After 3 days, the administration of JAC4 or vehicle was discontinued, and blood samples, small intestine tissues, and thymus and spleen tissues were collected 4 days later.
HE staining was performed on spleen tissues and thymus tissues from mice in all groups, with procedures as follows:
(1) Section deparaffinization: 1) xylene I treatment for 5 min; 2) xylene II treatment for 5 min; 3) xylene III treatment for 5 min; 4) 100% ethanol treatment for 5 min; 5) 100% ethanol II treatment for 5 min; 6) 95% ethanol treatment for 5 min; 7) 90% ethanol treatment for 5 min; 8) 85% ethanol treatment for 5 min; 9) 70% ethanol treatment for 5 min; 10) 60% ethanol treatment for 5 min.
(2) HE staining: After being rinsed with double-distilled water, the sections were stained with hematoxylin solution for 6 min, differentiated with 0.5% hydrochloric acid in alcohol for a short period, and then placed in double-distilled water for bluing. When the chromatin within the cell nuclei was clearly visible under a microscope, the sections were stained with 0.5% eosin for 30 s.

C57BL/6 male mice [2] = assay: Dose-response of protection against total body X-ray irradiation: body weight, small intestine villus length (Example 5); format: in vivo
Method: C57BL/6 male mice (24.8±1.6 g in body weight) aged 10 weeks were divided into 6 groups: a vehicle control group, a JAC4 (200 mg/kg) treatment group, a vehicle control+radiation group, and JAC4 intervention (50 mg/kg, 100 mg/kg, and 200 mg/kg)+radiation groups, with 12 mice in each group. JAC4 or an equal volume of vehicle (polyethylene glycol:ethanol:physiological saline=47.5:7.5:50, v/v/v) was orally administered to the mice once daily for 7 consecutive days. After that, the mice in the radiation groups were subjected to total body X-ray irradiation (6 Gy). The JAC4 or vehicle treatment was continued for 3 days.
The body weights of the mice before and after the total body X-ray irradiation were measured, and the body weight curves are shown in FIG. 8.
HE staining was performed on the small intestine tissues of mice subjected to total body X-ray irradiation. The length of the small intestine villi in all groups was measured and the results were statistically analyzed. The specific procedures are as follows: 3 mice were randomly selected from each group for statistical analysis of their small intestine tissue HE staining images, and for each mouse, 6 fields of view were randomly selected for inspection (** p<0.01, *** p<0.001).

IEC-6 cells = assay: Mitochondrial membrane potential by JC-1 staining in irradiated IEC-6 cells (Example 13); format: cell-based; settings: JAC4 24 h pretreatment + 12 Gy, 24 h after
Method: IEC-6 cells were pretreated for 24 h with JAC4 ([…]) or DMSO and subjected to radiation (12 Gy) treatment. After 24 h the ROS produced in the IEC-6 cells was determined with a DCFH probe, the apoptosis of IEC-6 cells was determined by Hoechst staining, the mitochondrial membrane potential in IEC-6 cells was determined by JC-1 staining, and the apoptotic IEC-6 cell ratio of cells different treatments and the red/green fluorescence ratio in IEC-6 cells after different treatments were calculated (**p<0.01 and ***p<0.001).

[3] = JAC4 100 mg/kg oral + TBI 6 Gy vs vehicle + radiation
[4] = non-radiation, JAC4 100 mg/kg oral

c1ccc(CSc2nnc(C3COc4ccccc4O3)o2)nc1 (stereo not shown) [JAC4]
spleen index (C57BL/6 male mice [1]; JAC4 100 mg/kg oral + TBI 6 Gy): 1.31 ± 0.18 mg/g
thymus index (C57BL/6 male mice [1]; JAC4 100 mg/kg oral + TBI 6 Gy): 1.63 ± 0.24 mg/g
HE staining of spleen tissue after X-ray radiation (C57BL/6 male mice [1]; [3]): no significant difference between the vehicle control group and the JAC4 group
HE staining of thymus tissue after X-ray radiation (C57BL/6 male mice [1]; [3]): no significant difference between the vehicle control group and the JAC4 group
degree of body weight loss (C57BL/6 male mice [1]; JAC4 100 mg/kg oral, TBI 6 Gy): significantly less than that in the control group
spleen index (C57BL/6 male mice [1]; [4]): 3.22 ± 0.26 mg/g
thymus index (C57BL/6 male mice [1]; [4]): 2.51 ± 0.43 mg/g
body weight loss after radiation (C57BL/6 male mice [2]; JAC4 50, 100, 200 mg/kg oral + TBI 6 Gy vs vehicle+radiation): slower body weight loss
small intestine villus length (C57BL/6 male mice [2]; day 3 after TBI 6 Gy, JAC4 50 mg/kg oral): 249.42±27.19 μm
small intestine villus length (C57BL/6 male mice [2]; day 3 after TBI 6 Gy, JAC4 100 mg/kg oral): 244.78±40.74 μm
small intestine villus length (C57BL/6 male mice [2]; day 3 after TBI 6 Gy, JAC4 200 mg/kg oral): 212.43±27.99 μm
small intestine villus length (C57BL/6 male mice [2]; day 7 after TBI 6 Gy, JAC4 50 mg/kg oral): 235.57±24.34 μm
small intestine villus length (C57BL/6 male mice [2]; day 7 after TBI 6 Gy, JAC4 100 mg/kg oral): 254.95±28.91 μm
small intestine villus length (C57BL/6 male mice [2]; day 7 after TBI 6 Gy, JAC4 200 mg/kg oral): 259.17±17.56 μm
small intestine villus length (C57BL/6 male mice [2]; non-radiation, JAC4 200 mg/kg oral): 306.78±14.64 μm
red/green fluorescence ratio (JC-1, mitochondrial membrane potential) (IEC-6 cells): 0.49±0.05

— patent US20250345318A1, “COMPOUND AND USE THEREOF IN PREVENTING OR TREATING RADIATION DAMAGE” (SIMCERE PHARMACEUTICAL CO., LTD., priority 2022, published 2025)
